In patent US5493024A, “3,4,N-trisubstituted-4,5-dihydro-1H-pyrazole-1-carboxamides and their use as insectioides” (DowElanco, priority 1993, dated 1996):
≈ marks a conversion by molar mass, not a printed value.

Key:
tobacco budworm [1] = test: Effect on tobacco budworm, contact test (treated Teflon discs); format: in vivo, H. virescens (tobacco budworm); settings: second-instar larvae, sprayed Teflon discs 24 hours, then 5 more days on untreated leaf, 25° C; for LC50: Heliothis virescens, 144 h, read-out: TOBACCO BUDWORM Contact Test LC50, ppm
Procedure: (§1) Effect on Tobacco Budworm and Beet Armyworm by Contact.
(§2) Stock solutions of the compounds to be tested having a known concentration were prepared by dissolving weighed amounts in a 90:10 mixture of high-purity acetone and ethanol and these solutions were diluted with distilled water (containing 0.05 percent by weight Tween 20™ surfactant) to obtain the spray solutions of known concentration employed. Teflon™ discs 5 cm in diameter were placed in plastic petri dishes of slightly larger diameter and these dishes were sprayed by means of a track sprayer applying 0.104 mL of spray solution per cup. The Teflon™ discs were allowed to dry, a single second-instar H. virescens (tobacco budworm) or S. exigua (beet armyworm) larva was placed on each Teflon™ disc, and each disc was capped with a plastic lid. Ten Teflon™ discs were prepared for each application rate and five application rates were usually run. Treated discs were stored for 24 hours at 25° C. and then the Teflon™ disc was removed and replaced with an untreated cotton leaf disc. After 5 more days of storage at 25 ° C. the dishes were graded for mortality. Untreated controls and positive controls (cypermethrin) were run simultaneously. The amount of test chemical required to kill half of the larvae (LD50) was calculated.

beet armyworm [2] = test: Effect on beet armyworm, contact and ingestion test (treated cotton leaf discs); format: in vivo, S. exigua (beet armyworm); settings: second-instar larvae, sprayed cotton leaf discs, 5 days at 25° C; for LC50: Spodoptera exigua, foliar, 120 h, read-out: BEET ARMYWORM Contact and Ingestion Test LC50, ppm
Procedure: (§3) Effect on Tobacco Budworm and Beet Armyworm by Leaf Ingestion and/or Contact.
(§4) Stock solutions of the compounds to be tested having a known concentration were prepared by dissolving weighed amounts in a 90:10 mixture of high-purity acetone and ethanol and these solutions were diluted with distilled water (containing 0.05 percent by weight Tween 20™ surfactant) to obtain the spray solutions of known concentration employed. Greenhouse-grown cotton leaves of uniform age were cut into 2.5 cm diameter discs and one disc was placed in the bottom of each of a number of 30 mL plastic cups. The cups were then sprayed by means of a track sprayer applying 0.055 mL of spray solution per cup. The leaf discs were allowed to dry and then a single second-instar H. virescens (tobacco budworm) or S. exigua (beet armyworm) larva was added to each cup and each cup was capped with a perforated plastic lid. Ten cups were prepared for each insect species and each application rate and five applications rates were usually run. Treated cups were stored for 5 days at 25° C. and were then graded for mortality. Untreated controls and positive controls (cypermethrin) were run simultaneously. The amount of test chemical required to kill half of the larvae (LD50) was calculated.

tobacco budworm [3] = test: Effect on tobacco budworm, contact and ingestion test (treated cotton leaf discs); format: in vivo, H. virescens (tobacco budworm); settings: second-instar larvae, sprayed cotton leaf discs, 5 days at 25° C; for LC50: Heliothis virescens, foliar, 120 h, read-out: TOBACCO BUDWORM Contact and Ingestion Test LC50, ppm
Procedure: as §3, §4

beet armyworm [4] = test: Effect on beet armyworm, contact test (treated Teflon discs); format: in vivo, S. exigua (beet armyworm); settings: second-instar larvae, sprayed Teflon discs 24 hours, then 5 more days on untreated leaf, 25° C; for LC50: Spodoptera exigua, 144 h, read-out: BEET ARMYWORM Contact Test LC50, ppm
Procedure: as §1, §2

| Compound | LC50 (beet armyworm [2]) | LC50 (beet armyworm [4]) | LC50 (tobacco budworm [3]) | further results |
| --- | --- | --- | --- | --- |
| 4,5-Dihydro-3-(4-fluorophenyl)-4-(4-fluoro-5-trifluoromethyl-2-pyridinyl)- N-(4-trifluoromethoxyphenyl)-1H-pyrazole-1-carboxamide |  |  |  | TOBACCO BUDWORM Contact Test LC50, ppm (tobacco budworm [1]; 8640 min): 80 ppm; BEET ARMYWORM Contact and Ingestion Test LC50, ppm (beet armyworm [2]): 5.2 ppm; TOBACCO BUDWORM Contact and Ingestion Test LC50, ppm (tobacco budworm [3]): 10.0 ppm; BEET ARMYWORM Contact Test LC50, ppm (beet armyworm [4]; 8640 min): 7.6 ppm |
| O=C(Nc1ccc(C(F)(F)F)cc1)N1CC(c2ccc(Cl)nn2)C(c2ccc(Cl)cc2)=N1 (stereo not drawn) [AA, 4-(6-Chloro-3-pyridazinyl)-3-(4-chlorophenyl)-4,5-dihydro-N-(4-trifluoromethylphenyl)-1H-pyrazole-1-carboxamide] | 20.3 µg/mL (≈ 42.3 µM) | 11.7 µg/mL (≈ 24.4 µM) |  |  |
| O=C(Nc1ccc(C(F)(F)F)cc1)N1CC(c2ccc(C(F)(F)F)cn2)C(c2ccc(Cl)cc2)=N1 (stereo not drawn) [B, 3-(4-Chorophenyl)-4,5-dihydro-N-(4-trifluoromethylphenyl)-4-(5-trifluoromethyl-2-pyridinyl)-1H-pyrazole-1-carboxamide] | 10 µg/mL (≈ 19.5 µM) | > 80 µg/mL | 7.6 µg/mL (≈ 14.8 µM) | LC50 (tobacco budworm [1]): > 80 µg/mL |
| O=C(Nc1ccc(OC(F)(F)F)cc1)N1CC(c2ccc(C(F)(F)F)cn2)C(c2ccc(Cl)cc2)=N1 (stereo not drawn) [C, 3-(4-Chlorophenyl)-4,5-dihydro-N-(4-trifluoromethoxyphenyl)-4-(5-trifluoromethyl-2-pyridinyl)-1H-pyrazole-1-carboxamide] | 7.9 µg/mL (≈ 14.9 µM) |  | 9.1 µg/mL (≈ 17.2 µM) |  |
| CSc1ccc(NC(=O)N2CC(c3ccc(C(F)(F)F)cn3)C(c3ccc(Cl)cc3)=N2)cc1 (stereo not drawn) [Compound A, 3-(4-Chlorophenyl)-4,5-dihydro-N-(4-(methylthio)phenyl)-4-(5-trifluoromethyl-2-pyridinyl)-1H-pyrazole-1-carboxamide] | 107 µg/mL (≈ 218 µM) |  | > 400 µg/mL |  |
| O=C(Nc1ccc(Cl)cc1)N1CC(c2ccc(C(F)(F)F)cn2)C(c2ccc(Cl)cc2)=N1 (stereo not drawn) [D, 3-(4-Chlorophenyl)-N-(4-chlorophenyl)-4,5-dihydro-4-(5-trifluoromethyl-2-pyridinyl)-1H-pyrazole-1-carboxamide] | 1.8 µg/mL (≈ 3.76 µM) | 12.6 µg/mL (≈ 26.3 µM) | 2.1 µg/mL (≈ 4.38 µM) | LC50 (tobacco budworm [1]): 35.6 µg/mL (≈ 74.3 µM) |
| O=C(Nc1ccc(OC(F)(F)F)cc1)N1CC(c2cccc(F)n2)C(c2ccc(F)cc2)=N1 (stereo not drawn) [E, 4,5-Dihydro-3-(4-fluorophenyl)-4-(6-fluoro-2-pyridinyl)-N-(4-trifluoromethoxyphenyl)-1H-pyrazole-1-carboxamide] | 13.6 µg/mL (≈ 29.4 µM) |  | 70.7 µg/mL (≈ 153 µM) |  |
| O=C(Nc1ccc(Cl)cc1)N1CC(c2cccc(F)n2)C(c2ccc(F)cc2)=N1 (stereo not drawn) [F, N-(4-Chlorophenyl)-4,5-dihydro-3-(4-fluorophenyl)-4-(6-fluoro-2-pyridinyl)-1H-pyrazole-1-carboxamide] | > 800 µg/mL |  | 606 µg/mL (≈ 1470 µM) |  |
| O=C(Nc1ccc(OC(F)(F)F)cc1)N1CC(c2ccc(C(F)(F)F)cn2)C(c2ccc(F)cc2)=N1 (stereo not drawn) [H, 4,5-Dihydro-3-(4-fluorophenyl)-N-(4-trifluoromethoxyphenyl)-4-(5-trifluoromethyl-2-pyridinyl)-1H-pyrazole-1-carboxamide] | 1.3 µg/mL (≈ 2.54 µM) | < 5 µg/mL | 2.3 µg/mL (≈ 4.49 µM) | LC50 (tobacco budworm [1]): 23.3 µg/mL (≈ 45.5 µM) |
| O=C(Nc1ccc(Cl)cc1)N1CC(c2ccc(C(F)(F)F)cn2)C(c2ccc(F)cc2)=N1 (stereo not drawn) [I, N-(4-Chlorophenyl)-4,5-dihydro-3-(4-fluorophenyl)-4-(5-trifluoromethyl-2-pyridinyl)-1H-pyrazole-1-carboxamide] | 2.1 µg/mL (≈ 4.54 µM) | < 5 µg/mL | 1.3 µg/mL (≈ 2.81 µM) | LC50 (tobacco budworm [1]): 49.7 µg/mL (≈ 107 µM) |
| O=C(Nc1ccc(OC(F)(F)F)cc1)N1CC(c2cncnc2)C(c2ccccc2)=N1 (stereo not drawn) [J, 4,5-Dihydro-3-phenyl-4-(5-pyrimidinyl),N-(4-trifluoromethoxyphenyl)-1H-pyrazole-1-carboxamide] | > 800 µg/mL |  | 135 µg/mL (≈ 316 µM) |  |
| O=C(Nc1ccc(OC(F)(F)F)cc1)N1CC(c2cnc3ccc(Cl)cc3c2)C(c2ccccc2)=N1 (stereo not drawn) [K, 4-(6-Chloro-3-quinolinyl)-4,5-dihydro-3-phenyl-N-(4-trifluoromethoxyphenyl)-1H-pyrazole-1-carboxamide] | 29.7 µg/mL (≈ 58.1 µM) |  | 70.7 µg/mL (≈ 138 µM) |  |
| O=C(Nc1ccc(SC(F)(F)F)cc1)N1CC(c2ccc(C(F)(F)F)cn2)C(c2ccc(F)cc2)=N1 (stereo not drawn) [L, 4,5-Dihydro-3-(4-fluorophenyl)-4-(5-trifluoromethyl-2-pyridinyl)-N-((4-trifluoromethylthio)phenyl)-1H-pyrazol-1-carboxamide] | 7.9 µg/mL (≈ 14.9 µM) | > 80 µg/mL | 4.2 µg/mL (≈ 7.95 µM) | LC50 (tobacco budworm [1]): 63.5 µg/mL (≈ 120 µM) |
| N#Cc1ccc(C2CN(C(=O)Nc3ccc(OC(F)(F)F)cc3)N=C2c2ccc(Cl)cc2)nc1 (stereo not drawn) [N] | 2.1 µg/mL (≈ 4.32 µM) | 7.1 µg/mL (≈ 14.6 µM) | 1.5 µg/mL (≈ 3.09 µM) | LC50 (tobacco budworm [1]): 18.3 µg/mL (≈ 37.7 µM) |
| O=C(Nc1ccc(OC(F)(F)F)cc1)N1CC(c2ccc3cc(Cl)ccc3n2)C(c2ccc(Cl)cc2)=N1 (stereo not drawn) [O, 3-(4-Chlorophenyl)-4-(6-chloro-2-quinolinyl)-4,5-dihydro-N-(4-trifluoromethoxyphenyl)-1H-pyrazole-1-carboxamide] | > 200 µg/mL |  | > 200 µg/mL |  |
| O=C(Nc1ccc(OC(F)(F)F)cc1)N1CC(c2ccc3ccc(Cl)cc3n2)C(c2ccc(Cl)cc2)=N1 (stereo not drawn) [P, 3-(4-Chlorophenyl)-4-(7-chloro-2-quinolinyl)-4,5-dihydro-N-(4-trifluoromethoxyphenyl)-1H-pyrazole-1-carboxamide] | 40.6 µg/mL (≈ 74.4 µM) |  | 64.8 µg/mL (≈ 119 µM) |  |
| O=C(Nc1ccc(OC(F)(F)F)cc1)N1CC(c2cnc3cc(Cl)ccc3c2)C(c2ccccc2)=N1 (stereo not drawn) [Q, 4-(7-Chloro-3-quinolinyl)-4,5-dihydro-3-phenyl-N-(4-trifluoromethoxyphenyl)-1H-pyrazole-1-carboxamide] | 13.4 µg/mL (≈ 26.2 µM) |  | 30.8 µg/mL (≈ 60.3 µM) |  |
| O=C(Nc1ccc(OC(F)(F)F)cc1)N1CC(c2cccnc2)C(c2ccccc2)=N1 (stereo not drawn) [R, 4,5-Dihydro-3-phenyl-4-(3-pyridinyl)-N-(4-trifluoromethoxyphenyl)-1H-pyrazole-1-carboxamide] | > 400 µg/mL |  | 186 µg/mL (≈ 436 µM) |  |
| O=C(Nc1ccc(OC(F)(F)F)cc1)N1CC(c2cncnc2)C(c2ccc(F)cc2)=N1 (stereo not drawn) [S, 4,5-Dihydro-3-(4-fluorophenyl)-4-(5-pyrimidinyl)-N-(4-trifluoromethoxyphenyl)-1H-pyrazole-1-carboxamide] | 490 µg/mL (≈ 1100 µM) |  | 50 µg/mL (≈ 112 µM) |  |
| O=C(Nc1ccc(OC(F)(F)F)cc1)N1CC(c2cc(C(F)(F)F)nc(C(F)(F)F)c2)C(c2ccccc2)=N1 (stereo not drawn) [U, 4,5-Dihydro-4-(2,6-di(trifluoromethyl)-4-pyridinyl)-3-phenyl-N-(4-trifluoromethoxyphenyl)-1H-pyrazole-1-carboxamide] | 37.9 µg/mL (≈ 67.4 µM) | > 100 µg/mL |  |  |
| O=C(Nc1ccc(OC(F)(F)F)cc1)N1CC(c2cnc(C(F)(F)F)nc2)C(c2ccc(F)cc2)=N1 (stereo not drawn) [W, 4,5-Dihydro-3-(4-fluorophenyl)-N-(4-trifluoromethoxyphenyl)-4-(2-trifluoromethyl-5-pyrimidinyl)-1-H-pyrazole-1-carboxamide] | 7.5 µg/mL (≈ 14.6 µM) |  | 6.1 µg/mL (≈ 11.9 µM) |  |
| O=C(Nc1ccc(C(F)(F)F)cc1)N1CC(c2cnc(C(F)(F)F)cn2)C(c2ccc(F)cc2)=N1 (stereo not drawn) [Y, 4,5-Dihydro-3-(4-fluorophenyl)-N-(4-trifluoromethylphenyl)-4-(5-trifluoromethyl-2-pyrazinyl)-1H-pyrazole-1-carboxamide] | > 25 µg/mL | 10.5 µg/mL (≈ 21.1 µM) |  |  |
| O=C(Nc1ccc(C(F)(F)F)cc1)N1CC(c2cncc(Cl)n2)C(c2ccc(F)cc2)=N1 (stereo not drawn) [Z, 4-(6-Chloro-2-pyrazinyl)-4,5-dihydro-3-(4-fluorophenyl)-N-(4-trifluoromethylphenyl)-1H-pyrazole-1-carboxamide] | > 100 µg/mL | 75.8 µg/mL (≈ 163 µM) |  |  |
